Test results published in patent publication US20100234278A1, “PROPHYLACTIC AND/OR THERAPEUTIC AGENTS FOR PERIPHERAL NEUROPATHY” (priority 2006, published 2010).
Entries after “also recorded” stand apart in the source; their conditions may differ.

How the values were obtained:
[1] = tested on: taxotere-induced peripheral neuropathy model mice; assay: Evaluation of neurological symptoms in taxotere-induced peripheral neuropathy model; format: in vivo, ICR mice
Procedure: ICR mice (male) were purchased at 5 weeks of age and handled for 1 week before use in the experiment.
As an anticancer agent, taxotere (Taxotere injection, Aventis Pharma, 1V 80 mg 2 mL) was used.
Using the attached solution and physiological saline, taxotere was adjusted to a volume of about 0.15 ml per 10 g mouse body weight (45 mg/kg iv, 90 mg/kg ip). The vehicle serving as a control (0 mg/kg) was prepared in the same manner using Tween-80 and physiological saline for iv administration.
On the other hand, recombinant human EPO under the trade name Epogin (Chugai Pharmaceutical Co., Ltd., Japan) was adjusted using a solution (containing […] NaCl, 0.125% histidine-HCl and 0.005% Tween 80 in 10 mmol/L phosphate buffer (pH 6.0)) and administered at 720 U/head/week. The administration schedule was as follows: taxotere was given at 0 or 45 mg/kg iv (via the tail vein) or at 90 mg/kg ip, once a week for 3 weeks (3 times in total on days 0, 7 and 14), while the vehicle and EPO (720 U/head) were each given sc (into the dorsal neck region) 3 hours before taxotere treatment.
Continuous treatment with taxotere will induce typical hind leg crossing in mice when hanged by their tails. If the symptoms reach an advanced stage, the same crossing response will also occur in the forelegs, thereby leading to dysbasia. Such a symptom was used as an indicator to evaluate the mice as follows: 0=no symptom; 0.5=abnormal movement without clear flexion; 1=flexion in one hind leg; 2=hind leg flexion or extension lasting for 2 seconds or longer; 3=dysbasia. Scoring was accomplished by blind evaluation of symptoms.

sciatic nerve axons = assay: Histopathological evaluation of sciatic nerves (toluidine blue staining); format: in vivo, ICR mice
Procedure: ICR mice (male) were purchased at 5 weeks of age and handled for 1 week before use in the experiment. As an anticancer agent, taxotere (Taxotere injection, Aventis Pharma, 1V 80 mg 2 mL) was used. […] The vehicle serving as a control (0 mg/kg) was prepared in the same manner using Tween-80 and physiological saline for iv administration. On the other hand, recombinant human EPO under the trade name Epogin (Chugai Pharmaceutical Co., Ltd., Japan) was adjusted using a solution (containing […] NaCl, 0.125% histidine-HCl and 0.005% Tween 80 in 10 mmol/L phosphate buffer (pH 6.0)) and administered at 720 U/head/week. The administration schedule was as follows: […], once a week for 3 weeks (3 times in total on days 0, 7 and 14), while the vehicle and EPO (720 U/head) were each given sc (into the dorsal neck region) 3 hours before taxotere treatment. Muscle tissue was peeled off to expose sciatic nerves. Under this state, a glutaraldehyde fixing solution (stored on ice immediately before use) was added to immerse all the sciatic nerves. After incubation for 10 minutes, the sciatic nerves were isolated and gently shaken for 1 hour in a shaker containing a glutaraldehyde fixing solution. The sciatic nerves were then embedded in a standard manner into a resin for electron microscopic examination. Toluidine blue-stained sections were prepared and evaluated for the degree of axonal degeneration at three levels: none (−), mild (+) and moderate (++).

[2] = tested on: DRG (dorsal root ganglia); conditions: caused by addition of HIV envelop glycoprotein gp120 (Keswanai et al., 2004); cited from earlier work
[3] = tested on: streptozotocin-induced diabetes model rats; conditions: streptozotocin-induced diabetes model rats (Bianchi et al., 2004); cited from earlier work
[4] = tested on: cisplatin-treated cancer patients; conditions: EPO-treated group (Mangiameli et al., 2002); cited from earlier work
[5] = taxotere 90 mg/kg ip group (vehicle)

Time at which neurological symptoms developed after the treatment ([1]; taxotere 45 mg/kg iv once a week)	Time at which neurological symptoms developed after the treatment ([1]; taxotere 90 mg/kg ip once a week)	Degree of axonal degeneration: number of animals at mild (+) (sciatic nerve axons; [5])	Degree of axonal degeneration: number of animals at moderate (++) (sciatic nerve axons; [5])	Degree of axonal degeneration: number of animals at ± (sciatic nerve axons; [5])	Compound	Histological change of sciatic nerve axons, in words (sciatic nerve axons; groups receiving taxotere)	Effect on neurological symptoms ([1]; neuropathy induced by taxotere 90 mg/kg ip, EPO 720 U/head sc, after 10 days (FIG. 2))	Degeneration levels of sciatic nerve axons, range of the group (sciatic nerve axons; EPO group upon taxotere 90 mg/kg ip treatment)	Effect on axonal degeneration of sciatic nerves, in words (sciatic nerve axons; EPO versus vehicle, taxotere 90 mg/kg ip)	Cell loss in DRG [2]	Pain [3]	Reduced nerve conduction velocity [3]	Neurological symptom scores [4]
around 8 days	around 8 days	1	3	3	CC(=O)O[C@@]12CO[C@@H]1C[C@H](O)[C@@]1(C)C(=O)[C@H](O)C3=C(C)[C@@H](OC(=O)[C@H](O)[C@@H](NC(=O)OC(C)(C)C)c4ccccc4)C[C@@](O)([C@@H](OC(=O)c4ccccc4)[C@H]21)C3(C)C [taxotere]	diameter reduction and deformation of axons, which were indicative of clear axonal degeneration	–	–	–	–	–	–	–
–	–	–	–	–	erythropoietin [EPO]	–	reduce significantly the neurological symptoms; also recorded: tended to suppress exacerbation of neurological symptoms	± to mild (+)	tendency to alleviate neuropathy; also recorded: tended to suppress exacerbation	prevents cell loss in DRG	improves	improves reduced nerve conduction velocity	significantly improved
